Test results: US12077503B2, “Substituted cyclic amides and their use as herbicides” (FMC CORPORATION, priority 2015, dated 2024)

What was measured:
Format in all cases: in vivo
[1] = system: corn (Zea mays); assay: Test A postemergence
How it was run: (§1)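 Visual injury scores from 0, no effect, to 100, complete control, were assigned versus untreated controls roughly 10 d after treatment in the greenhouse. Test chemicals, formulated with surfactant in a non-phytotoxic solvent, were applied to planted seeds as a preemergence soil spray or postemergence to one- to two-leaf plants 2 to 10 cm tall, in loam–sand soil.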

[2] = system: Kochia (Kochia scoparia); assay: Test A postemergence
How it was run: as §1

[3] = system: wheat (Triticum aestivum); assay: Test A postemergence
How it was run: as §1

[4] = system: ragweed (common ragweed, Ambrosia elatior); assay: Test A postemergence
How it was run: as §1

[5] = system: giant foxtail (Setaria faberii); assay: Test A postemergence
How it was run: as §1

[6] = system: Galium (catchweed bedstraw, Galium aparine); assay: Test A postemergence
How it was run: as §1

[7] = system: blackgrass (Alopecurus myosuroides); assay: Test A postemergence
How it was run: as §1

[8] = system: pigweed (Amaranthus retroflexus); assay: Test A postemergence
How it was run: as §1

[9] = system: ryegrass, Italian (Italian ryegrass, Lolium multiflorum); assay: Test A postemergence
How it was run: as §1

[10] = system: barnyardgrass (Echinochloa crus-galli); assay: Test A postemergence
How it was run: as §1

[11] = system: Kochia (Kochia scoparia); assay: Test A preemergence; settings: for Plant response rating, Kochia: 125 g ai/ha; for Kochia plant response rating (0 to 100 scale, 0 is no effect, 100 is complete control): 500 g ai/ha, visual injury approx. 10 d
How it was run: as §1

[12] = system: ragweed (common ragweed, Ambrosia elatior); assay: Test A preemergence; settings: for Plant response rating, Ragweed: 125 g ai/ha; for Ragweed plant response rating (0 to 100 scale, 0 is no effect, 100 is complete control): 500 g ai/ha, visual injury approx. 10 d
How it was run: as §1

[13] = system: giant foxtail (Setaria faberii); assay: Test A preemergence; settings: for Plant response rating, Foxtail, Giant: 125 g ai/ha; for Foxtail, Giant plant response rating (0 to 100 scale, 0 is no effect, 100 is complete control): 500 g ai/ha, visual injury approx. 10 d
How it was run: as §1

[14] = system: pigweed (Amaranthus retroflexus); assay: Test A preemergence; settings: for Plant response rating, Pigweed: 125 g ai/ha; for Pigweed plant response rating (0 to 100 scale, 0 is no effect, 100 is complete control): 500 g ai/ha, visual injury approx. 10 d
[15] = system: ryegrass, Italian (Italian ryegrass, Lolium multiflorum); assay: Test A preemergence; settings: for Plant response rating, Ryegrass, Italian: 125 g ai/ha; for Ryegrass, Italian plant response rating (0 to 100 scale, 0 is no effect, 100 is complete control): 500 g ai/ha, visual injury approx. 10 d
How it was run: as §1

[16] = system: barnyardgrass (Echinochloa crus-galli); assay: Test A preemergence; settings: for Plant response rating, Barnyardgrass: 125 g ai/ha; for Barnyardgrass plant response rating (0 to 100 scale, 0 is no effect, 100 is complete control): 500 g ai/ha, visual injury approx. 10 d
How it was run: as §1

[17] = system: ducksalad (Heteranthera limosa); assay: Test B flooded paddy test; settings: Flood, 250 g ai/ha; 0 to 100 scale where 0 is no effect and 100 is complete control; 13 to 15 d
How it was run: (§2)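 Visual ratings (0 none to 100 complete control) are relative to untreated plants, taken 13–15 d after treatment in a greenhouse. Test material went straight into floodwater standing 3 cm above the soil, kept constant, on plants at the 2-leaf stage.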

[18] = system: rice (Oryra sativa); assay: Test B flooded paddy test; settings: Flood, 250 g ai/ha; 0 to 100 scale where 0 is no effect and 100 is complete control; 13 to 15 d
How it was run: as §2

[19] = system: sedge, umbrella (small-flower umbrella sedge, Cyperus difformis); assay: Test B flooded paddy test; settings: Flood, 250 g ai/ha; 0 to 100 scale where 0 is no effect and 100 is complete control; 13 to 15 d
How it was run: as §2

[20] = system: barnyardgrass (Echinochloa crus-galli); assay: Test B flooded paddy test; settings: Flood, 250 g ai/ha; 0 to 100 scale where 0 is no effect and 100 is complete control; 13 to 15 d
How it was run: as §2

[21] = 125 g ai/ha, postemergence, visual injury rating on 0 to 100 scale (0 no effect, 100 complete control), approx. 10 d
[22] = 500 g ai/ha, postemergence, 0 to 100 scale, 0 no effect, 100 complete control
[23] = preemergence, 0 to 100 scale (0 no effect, 100 complete control)
[24] = 125 g ai/ha, postemergence, visual rating after approx. 10 d, 0 to 100 scale (0 no effect, 100 complete control)
[25] = Postemergence, 500 g ai/ha, 0 to 100 scale where 0 is no effect and 100 is complete control
[26] = Preemergence, visual injury after approximately 10 d, 0 to 100 scale where 0 is no effect and 100 is complete control

Structure (SMILES): CCc1ccc(C2CNC(=O)C2C(=O)Nc2ccccc2F)cc1 (stereo not drawn) [Compound 466]
- Corn plant response rating [1, 21]: 0
- Plant response rating, Corn [1, 22]: 30
- Kochia plant response rating [2, 21]: 0
- Plant response rating, Kochia [2, 22]: 0
- Wheat plant response rating [3, 21]: 0
- Plant response rating, Wheat [3, 22]: 20
- Ragweed plant response rating [4, 21]: 0
- Plant response rating, Ragweed [4, 22]: 30
- Foxtail, Giant plant response rating [5, 21]: 20
- Plant response rating, Foxtail, Giant [5, 22]: 80
- Galium plant response rating [6, 21]: 0
- Plant response rating, Galium [6, 22]: 0
- Blackgrass plant response rating [7, 21]: 30
- Plant response rating, Blackgrass [7, 22]: 60
- Pigweed plant response rating [8, 21]: 0
- Plant response rating, Pigweed [8, 22]: 0
- Ryegrass, Italian plant response rating [9, 21]: 0
- Plant response rating, Ryegrass, Italian [9, 22]: 20
- Barnyardgrass plant response rating [10, 21]: 80
- Plant response rating, Barnyardgrass [10, 22]: 90
- Plant response rating, Kochia [11, 23]: 0
- Kochia plant response rating (0 to 100 scale, 0 is no effect, 100 is complete control) ([11]; Preemergence): 0
- Plant response rating, Ragweed [12, 23]: 0
- Ragweed plant response rating (0 to 100 scale, 0 is no effect, 100 is complete control) ([12]; Preemergence): 30
- Plant response rating, Foxtail, Giant [13, 23]: 70
- Foxtail, Giant plant response rating (0 to 100 scale, 0 is no effect, 100 is complete control) ([13]; Preemergence): 90
- Plant response rating, Pigweed [14, 23]: 0
- Pigweed plant response rating (0 to 100 scale, 0 is no effect, 100 is complete control) ([14]; Preemergence): 0
- Plant response rating, Ryegrass, Italian [15, 23]: 0
- Ryegrass, Italian plant response rating (0 to 100 scale, 0 is no effect, 100 is complete control) ([15]; Preemergence): 20
- Plant response rating, Barnyardgrass [16, 23]: 90
- Barnyardgrass plant response rating (0 to 100 scale, 0 is no effect, 100 is complete control) ([16]; Preemergence): 90
- Plant response rating, Ducksalad [17]: 0
- Plant response rating, Rice [18]: 0
- Plant response rating, Sedge, Umbrella [19]: 0
- Plant response rating, Barnyardgrass [20]: 0

Structure (SMILES): O=C(Nc1ccccc1F)C1C(=O)N(c2ccc([N+](=O)[O-])cc2)CC1c1cccc(C(F)(F)F)c1 (stereo not drawn) [Compound 602]
- Plant response rating, Corn [1, 24]: 0
- Plant response rating, Corn [1, 25]: 0
- Plant response rating, Kochia [2, 24]: 0
- Plant response rating, Kochia [2, 25]: 0
- Plant response rating, Wheat [3, 24]: 0
- Plant response rating, Wheat [3, 25]: 0
- Plant response rating, Ragweed [4, 24]: 0
- Plant response rating, Ragweed [4, 25]: 0
- Plant response rating, Foxtail, Giant [5, 24]: 0
- Plant response rating, Foxtail, Giant [5, 25]: 0
- Plant response rating, Galium [6, 24]: 0
- Plant response rating, Galium [6, 25]: 0
- Plant response rating, Blackgrass [7, 24]: 0
- Plant response rating, Blackgrass [7, 25]: 0
- Plant response rating, Pigweed [8, 24]: 0
- Plant response rating, Pigweed [8, 25]: 0
- Plant response rating, Ryegrass, Italian [9, 24]: 0
- Plant response rating, Ryegrass, Italian [9, 25]: 0
- Plant response rating, Barnyardgrass [10, 24]: 0
- Plant response rating, Barnyardgrass [10, 25]: 0
- Plant response rating, Kochia [11, 26]: 0
- Kochia plant response rating (0 to 100 scale, 0 is no effect, 100 is complete control) ([11]; Preemergence): 0
- Plant response rating, Ragweed [12, 26]: 0
- Ragweed plant response rating (0 to 100 scale, 0 is no effect, 100 is complete control) ([12]; Preemergence): 0
- Plant response rating, Foxtail, Giant [13, 26]: 0
- Foxtail, Giant plant response rating (0 to 100 scale, 0 is no effect, 100 is complete control) ([13]; Preemergence): 0
- Plant response rating, Pigweed [14, 26]: 0
- Pigweed plant response rating (0 to 100 scale, 0 is no effect, 100 is complete control) ([14]; Preemergence): 0
- Plant response rating, Ryegrass, Italian [15, 26]: 0
- Ryegrass, Italian plant response rating (0 to 100 scale, 0 is no effect, 100 is complete control) ([15]; Preemergence): 0
- Plant response rating, Barnyardgrass [16, 26]: 0
- Barnyardgrass plant response rating (0 to 100 scale, 0 is no effect, 100 is complete control) ([16]; Preemergence): 0
- Plant response rating, Ducksalad [17]: 30
- Plant response rating, Rice [18]: 0
- Plant response rating, Sedge, Umbrella [19]: 0
- Plant response rating, Barnyardgrass [20]: 0
